Test results published in patent publication US9284310B2, “Inhibitors of cytomegalovirus” (Boehringer Ingelheim International GmbH, priority 2012, dated 2016).

Legend:
[1] = tested on: HCMV AD169-Bac-Luc2 US2-US6 clone #26 virus; assay: HCMV AD169-Bac Luciferase Assay (Example B); type: cell-based, Human Cytomegalovirus; details: Human betaherpesvirus 5, AD169, MRC5, 72 h, read-out: EC50 Example B
Description: This assay format is a luciferase reporter-based assay that determines the ability of compounds to inhibit the infection by detecting a luciferase signal decrease following the addition of BIGlo substrate (preparation indicated below) directly in the culture media. Mono-oxygenation of luciferin is catalyzed by luciferase in the presence of Mg2+, ATP and molecular oxygen. The generation of oxyluciferin is a luminescent reaction that can be detected with the proper platereader. Human Cytomegalovirus AD169-Bac is obtained from Dr. Thomas Shenk at Princeton University (reference paper Yu et al. 2002—J. Virol. 76 (5):2316-2328, herein incorpoarated by reference) and modified by recombineering to introduce a humanized firefly luciferase gene (Luc2) at the US2-US6 position in the HCMV genome. The virus is expanded in MRC-5 cells.
(§1) Serial dilutions of the DMSO stock compound solution are performed using DMSO in columns 2-11 and 14-23. DMSO alone is present in columns 1, 12, 13 and 24. Four μL of the DMSO serial dilutions is obtained and diluted using […] of D-MEM 5% FBS culture medium to obtain 4% DMSO (7×).
To perform the assay, 7 μL of the freshly prepared 4% DMSO serial dilution plate is added to the assay plate containing […] of MRC-5 cells plated the day before (10000 cells per well). Seventeen μL of diluted virus is added to columns 2-12 and 14-24 and only D-MEM 5% FBS medium to uninfected control (columns 1 and 13) for a final DMSO concentration of 0.6%. The virus dilution is based on the amount of virus required to obtain the highest luciferase signal possible without CPE (generally between 0.05 and 1 μL of virus stock per well or MOI=0.02). The assay plates are incubated at 37° C. with 5% CO2 for 3 days. Fifteen μL of room temperature BIGlo buffer is added to room temperature assay plates also incubated at room temperature for 15 minutes. The plates are sealed with TopSeal for biosafety and the luminescence signal is read on the TopCount plate reader (Perkin-Elmer) or equivalent.

HCMV AD169 virus [2] = assay: HCMV AD169 qPCR 96-Well Assay (Example C); type: cell-based; details: Human betaherpesvirus 5, AD169, MRC5, 72 h; qPCR of viral DNA, MRC-5 cells, 3 days
Experimental: The hCMV quantitative PCR (qPCR) assay evaluates the ability of a compound to inhibit, directly or indirectly, the replication of hCMV viral DNA during the first 72 h following the infection. Compounds that inhibit either entry or the hCMV polymerase are active in this assay. Compounds are tested in the qPCR assay in 96-well plates, using a 9-point dose-response with 8 compounds for each 96-well plate. The assay was adapted from the method described by Schnepf et al., Rapid determination of antiviral drug susceptibility of human cytomegalovirus by real-time PCR, Antiviral Research 81 (2009) 64-67.
Final Concentrations: • 10 mM Tris-HCl pH8.0 • 50 mM KCl • 2 mM MgCl2 • 0.45% Tween20 • 0.45% Nonidet P40
Serial dilutions of the DMSO stock compound solution are performed using DMSO in columns 2-10. DMSO alone is present in columns 1 and 11. Column 12 remains empty. Diluted compounds are further diluted with DMEM 5% FBS cell culture medium.
To perform the assay, 25 μL of inhibitor dilutions freshly prepared is added to the assay plate containing 50 μL of MRC-5 cells plated the day before (30000 cells per well). In a 9 point dose-response, column 1 contains mock infected cells and serves at negative control, with the appropriate concentration of DMSO, columns 2 to 10 contain compound dilutions and column 11 contains infected cells, with the appropriate concentration of DMSO and serves as the positive control. Column 12 serves for the standard curve in the qPCR process. Twenty-five μL of virus diluted in DMEM 5% FBS medium (to infect at MOI=0.05) is added to columns 2-11 and only D-MEM 5% FBS medium to uninfected control (column 1) for a final DMSO concentration of 0.6%. Incubate plates at 37° C. in 5% CO2 incubator for 3 days. Whole cell lysates are then obtained by adding 100 μL of Cell lysis buffer to each well including freshly added Proteinase K at a ratio of 1:5 (i.e. 200 μL Proteinase K:1000 μL Cell Lysis buffer) and incubating the assay plate at 56° C. for 1 h. Plates are centrifuged at 1300 rpm for 2 minutes to remove any condensation before proceeding with the qPCR.
The cell lysate is carefully pipetted up and down to mix well and diluted 1:40 in H2O to give a final dilution of 1:80 relative to the 100 μL of lysis buffer that Is added to the cells. 5 μL of diluted lysate is used for the qPCR reaction. An incubation of 5 minutes at 95° C. in a PCR machine is required to inactivate the Proteinase K. The cell lysates can be stored at −20° C. or used to perform qPCR immediately.
A 81 bp fragment of US17 gene from AD169 is amplified by PCR using primers qHCMV7 and qHCMV8. The PCR product is cloned into pCR4 TOPO vector (Invitrogen) and a clone harboring the insert is selected. A mitochondrial DNA is also added to normalize the HCMV copy number. Serial dilutions of the US17 plasmid and mitochondrial DNA are performed in heat-inactivated lysis buffer at the same dilution as the cell lysates (1:80). Usually, a standard curve ranging from 10E6 to 10E2 copies (per well) is suitable.
A typical qPCR reaction consists of the following:
A qPCR cycle consists of an initial denaturation of DNA and activation of the Taq enzyme at 95° C. for 10 min followed by 45 cycles of 15 seconds at 95° C. and 1 min at 60° C. Fluorescence is measured at each cycle, following the elongation step at 60° C. The reaction, data acquisition and analysis are performed using AppliedBiosystems 7500 Real time PCR system or other suitable real-time PCR system.

HCMV AD169 virus [3] = assay: HCMV AD169 CPE Assay (Example A); type: cell-based; details: Human betaherpesvirus 5, AD169, MRC5, 216 h, MRC-5 cells, 9 days, MTS readout
Experimental: This assay format is a CPE (Cytopathic effect)-based assay that determines the ability of compounds to protect cells against infection with a dye reduction assay (MTS of CellTiter 96® AQueous Non-Radioactive Cell Proliferation Assay from Promega). The conversion of MTS into aqueous, soluble formazan is performed by dehydrogenase enzymes found in metabolically active cells. The quantity of formazan product determined by absorbance at 490 nm is directly proportional to the number of living cells in culture.
as §1
To perform the assay, 10 µL of the freshly prepared 4% DMSO serial dilution plate is added to the assay plate containing 40 μL of MRC-5 cells plated the day before (10000 cells per well). Twenty μL of diluted virus is added to columns 2-12 and 14-24 and only D-MEM 5% FBS medium to uninfected control (columns 1 and 13) for a final DMSO concentration of 0.6%.
The virus dilution is based on the amount of virus required to obtain a Signal-to-Background of 3-4 (generally between 0.1 and 1 μL of virus stock per well or MOI=0.05). The assay plates are incubated at 37° C. with 5% CO2 for 9 days in order to obtain 100% CPE in infected control without compound (columns 12 and 24). Ten μL of freshly mixed room temperature MTS/PMS (1:20 v/v) is added and the plates are incubated at 37° C. with 5% CO2 for 4-5 h (until signal saturation at 2.3 in the 100% CPE control). The plates are sealed with TopSeal for biosafety and read on the Envision plate reader (Perkin-Elmer) or equivalent at OD 492 nm.

| Compound | EC50 [1] | EC50 (HCMV AD169 virus [2]) | EC50 (HCMV AD169 virus [3]) |
| --- | --- | --- | --- |
| CC(c1cccc(C(F)(F)F)c1)c1nc(-c2ccc(NC(=O)c3cscn3)cn2)cn1CCCO (centres unmarked) [Compound 1111] | 1260 nM | 665 nM |  |
| CC(O)(c1cccc(C(F)(F)F)c1)c1nc(-n2ccc(NC(=O)c3cscn3)cc2=O)c[nH]1 (centres unmarked) [Compound 1114] | 150 nM | 596 nM |  |
| CC(c1cccc(C(F)(F)F)c1)c1nc(-c2ccc(NC(=O)c3cscn3)cn2)c[nH]1 (centres unmarked) [Compound 1087] | 87 nM |  |  |
| CC(O)(c1cccc(C(F)(F)F)c1)c1cccc(-n2ccc(NC(=O)c3cscn3)cc2=O)n1 (centres unmarked) [Compound 1130] |  | 375 nM |  |
| O=C(Nc1ccc(-c2cnc(-c3cccc(C(F)(F)F)c3)[nH]2)cc1)c1cocn1 [Compound 1143] | 245 nM |  | 1220 nM |
| O=C(Nc1ccc(-c2cnc(-c3cccc(C(F)(F)F)c3)[nH]2)cc1)c1cscn1 [Compound 1018] | 100 nM | 270 nM | 380 nM |
| CC(O)(c1cccc(C(F)(F)F)c1)c1nc(-c2ccc(NC(=O)c3cscn3)cn2)cn1CCCOCc1ccccc1 (centres unmarked) [Compound 1115] | 535 nM | 1160 nM |  |
| Cn1cc(-c2cccc(C(F)(F)F)c2)nc1-c1ccc(NC(=O)c2cscn2)cc1 [Compound 1097] | 60 nM |  | 280 nM |
| CC(c1cccc(Cl)c1)c1ncc(-c2ccc(NC(=O)c3cscn3)cc2)[nH]1 (centres unmarked) [Compound 1086] | 118 nM |  | 355 nM |
| CC(O)(c1cccc(C(F)(F)F)c1)c1nc(-c2ccc(NC(=O)c3cscn3)cn2)c[nH]1 (centres unmarked) [Compound 1092] | 203 nM | 620 nM |  |
| O=C(Nc1ccc(-c2ncc(-c3cccc(Cl)c3)[nH]2)cn1)c1cscn1 [Compound 1059] | 425 nM |  |  |
| CC(O)(c1cccc(C(F)(F)F)c1)c1nc(-n2ccc(NC(=O)c3cscn3)cc2=O)cn1CCCO (centres unmarked) [Compound 1119] | 770 nM | 2050 nM |  |
| CC(O)(c1cccc(C(F)(F)F)c1)c1nc(-c2ccc(NC(=O)c3cscn3)cn2)cn1CCCO (centres unmarked) [Compound 1113] | 620 nM | 2100 nM |  |
| O=C(Nc1ccn(-c2nnc(-c3cccc(Cl)c3)[nH]2)c(=O)c1)c1cscn1 [Compound 1117] | 1450 nM | 3200 nM |  |
| O=C(Nc1ccc(-c2nnc(-c3cccc(Cl)c3)[nH]2)cc1)c1csnn1 [Compound 1133] |  |  | 2050 nM |
| O=C(Nc1ccc(-c2nc(-c3cccc(Cl)c3)nn2CC(O)CO)cc1)c1cscn1 (centres unmarked) [Compound 1121] | 63 nM | 275 nM |  |
| Cc1c(Cl)cccc1-c1cn(C)c(-c2ccc(NC(=O)c3cscn3)nc2)n1 [Compound 1103] | 1170 nM | 5800 nM |  |

| Compound | EC50 [1] | EC50 (HCMV AD169 virus [2]) | EC50 (HCMV AD169 virus [3]) |
| --- | --- | --- | --- |
| Cn1c(-c2ccc(NC(=O)c3cscn3)cc2)cnc1-c1cccc(C(F)(F)F)c1 [Compound 1096] | 665 nM |  |  |
| O=C(Nc1ccc(-c2cnc(-c3cc(C(F)(F)F)cc(C(F)(F)F)c3)[nH]2)cc1)c1cscn1 [Compound 1016] | 35 nM |  | 135 nM |
| O=C(Nc1ccc(-c2nc(-c3cccc(C(F)(F)F)c3)nn2CCCO)cc1)c1cscn1 [Compound 1034] | 59 nM |  | 275 nM |
| O=C(Nc1ccc(-c2ncc(-c3cccc(C(F)(F)F)c3)[nH]2)cc1)c1csnn1 [Compound 1139] | 111 nM |  | 260 nM |
| O=C(Nc1ccn(-c2cccc(-c3cccc(Cl)c3)n2)c(=O)c1)c1cscn1 [Compound 1129] |  | 145 nM |  |
| O=C(Nc1ccc(-c2nc(-c3cccc(C(F)(F)F)c3)nn2CCCN2CCOCC2)cc1)c1cscn1 [Compound 1077] | 180 nM |  | 903 nM |
| O=C(Nc1ccc(-c2cnc(NC(=O)C3(c4cccc(Cl)c4)CCC3)[nH]2)cc1)c1cscn1 [Compound 1004] | 7 nM |  | 98 nM |
| CC(O)(c1cccc(C(F)(F)F)c1)c1nc(-n2ccc(NC(=O)c3cscn3)cc2=O)cn1CCCOCc1ccccc1 (centres unmarked) [Compound 1118] | 460 nM | 970 nM |  |
| C#CCn1cc(-c2ccc(NC(=O)c3cscn3)cc2)nc1-c1cccc(C(F)(F)F)c1 [Compound 1098] | 100 nM |  |  |
| O=C(Nc1ccn(-c2cccc(Oc3cccc(Cl)c3)n2)c(=O)c1)c1cscn1 [Compound 1120] | 92 nM |  |  |
| O=C(Nc1ccc(-c2ncc(-c3cccc(Cl)c3)[nH]2)cc1)c1cscn1 [Compound 1045] | 66 nM |  | 345 nM |
| O=C(Nc1ccc(-c2cccc(-c3cccc(Cl)c3)n2)cc1)c1cocn1 [Compound 1038] | 1190 nM |  | 3100 nM |
| Cc1cccc(-c2nnc(-c3ccc(NC(=O)c4cscn4)cc3)[nH]2)c1 [Compound 1070] | 93 nM |  | 510 nM |
| O=C(O)CCn1nc(-c2cccc(Cl)c2)nc1-c1ccc(NC(=O)c2cscn2)cc1 [Compound 1041] | 645 nM |  | 4100 nM |
| NC(=O)CCn1nc(-c2cccc(Cl)c2)nc1-c1ccc(NC(=O)c2cscn2)cc1 [Compound 1109] | 185 nM | 455 nM |  |
| CC(c1cccc(C(F)(F)F)c1)c1nc(-n2ccc(NC(=O)c3cscn3)cc2=O)c[nH]1 (centres unmarked) [Compound 1116] | 27 nM | 160 nM |  |
